Measured values from patent US8158830B1, “Integrated process for the preparation of tetraaminobenzene” (E. I. du Pont de Nemours and Company, priority 2007, dated 2012).

Assay: solubility of TAB.4HCl in water
Type: physicochemical
Conditions: water at 25° C.
Experimental: The reaction mixture containing the precipitated TAB salt is then cooled to about 5° C. to about 15° C. and stirred, then filtered. The TAB salt is then washed 44. It may be washed with deaerated aqueous acid, such as HCl (33%), and then optionally with deaerated ethanol or methanol to produce a wet cake material; the optional ethanol or methanol wash can then be recycled 48, 47, and a purge is drawn to prevent accumulation. Using an agitated filter unit during the wash procedures can allow for a reduction of the wash volumes. Under such circumstances, using small amounts of cold water (e.g. about 5° C.) instead of the aqueous acid would also be effective as the TAB salt would have lower solubility in the cold water than it would have in water at about room temperature (e.g. 25° C.). For example, the solubility of TAB.4HCl in water at 25° C. is about 15 wt %.

Nc1cc(N)c(N)cc1N [TAB.4HCl, 1,2,4,5-tetraminobenzene]
solubility in water: about 15 wt %
